Read-outs that look alike come from different tables or passages of the source.
Assays:
[1] = test system: Akt phosphorylation on Ser473; experiment: Inhibition of activation of Akt kinase (phospho-Akt Ser473 assay in RBL-2H3 cells); format: cell-based, rat; conditions: IgE and antigen for 15 min
Excerpt: The mast cell degranulation assay using the RBL-2H3 cell line (see example 5) was also used to determine the status of the PI3K/Akt axis. Activation of PI3K leads to production of PIP3 on the cytosolic side of the lipid bilayer. Akt is recruited to the PIP3 domain and subsequently activated by phosphorylation on residues Ser473 and Thr308. (Franke et al., Cell 81:727-736, (1995)). Once recruited to the membrane, it is phosphorylated and activated by other kinases (Hemmings, Science 275:628-630 (1997); Hemmings, Science 276:534 (1997); Downward, Science 279:673-674 (1998); Alessi et al., EMBO J. 15:6541-6551 (1996)). Western blotting of the phosphorylated Ser473 residue on Akt (phospho-Akt Ser473) is widely used to assess the level of activation of the PI3K/Akt axis.
All buffers and solutions used for the phosphor-Akt Ser473 assay were from Meso Scale Discovery. Tris Lysis Buffer consisted of 150 mM NaCl, 20 mM Tris, pH 7.5, 1 mM EDTA, 1 mM EGTA and 1% Triton-X-100. Complete Tris Lysis Buffer was prepared prior to use by addition of protease inhibitor, phosphatase inhibitors and PMSF. […] Read Buffer T was used according to manufacturer's instructions. […]
Protein assay: protein concentration was determined using the BCA (bicinchoninic acid) Protein Assay kit according to the manufacturer's instructions. […] Plates were cooled to room temperature for 5 min and absorbance at 562 nm was measured in a multi-mode plate reader. Protein concentrations were calculated using FlexStation 3 software (SoftMax Pro version 5.3). Protein concentration of lysates was determined from a standard curve (BSA) using a linear curve fit.
Phosphoprotein assay: protein phosphorylation was determined using the MULTI-SPOT® Assay System (Mesa Scale Discovery), providing simultaneous detection of phosphorylated and total proteins. […] The optimal amount of protein was determined at 5 μg lysate per well for ERK½ and 10 μg/well for phospho-Akt Ser473. […] After a final four washes with Tris Wash Buffer 150 μl/well, Read Buffer T was added, and plates read on a SECTOR Imager 6000 plate reader. […]

[2] = test system: collagen type II-induced arthritis (CIA) in mice
[3] = therapeutic regimen, 100 mg/kg orally twice daily for 20 days, vs vehicle

CCCCCCCCCCCCCC[N+](C)(C)CC(=O)N(C)C[C@H](O)[C@@H](O)[C@H](O)[C@H](O)CO [Compound 1a, N-(2-(Dimethyl(tetradecyl)ammonio)acetyl)-N-methyl-D-glucamine chloride]
Level of phospho-Akt Ser473 ([1]; 1 μM): 81.8 ± 42.5 % positive control | Level of phospho-Akt Ser473 ([1]; 5 μM): 22.6 ± 15.7 % positive control | Level of phospho-Akt Ser473 ([1]; 25 μM): 6.8 ± 1.8 % positive control | cumulative arthritis score ([2]; prophylactic regimen): significantly reduced | duration of the disease ([2]; prophylactic regimen): significantly reduced | arthritic score ([2]; prophylactic, 25 mg/kg orally twice daily, from day 34 to day 47, vs vehicle): significantly reduced | paw thickness ([2]; prophylactic, 25 mg/kg, from day 34 after immunization, vs vehicle): significant reduction | arthritic score ([2]; prophylactic, 100 mg/kg orally twice daily, from day 40 to day 47, vs vehicle): significantly reduced | arthritis score [2, 3]: reduced the arthritis score and cumulative arthritis score compared to vehicle treated mice (FIG. 5C), but without reaching statistical significance | cumulative arthritis score [2, 3]: reduced the arthritis score and cumulative arthritis score compared to vehicle treated mice (FIG. 5C), but without reaching statistical significance | duration of disease ([2]; therapeutic regimen, 100 mg/kg, vs vehicle): trend to a reduction

— patent publication US10143668B2, “Hydroxy-substituted amino and ammonium derivatives and their medical use” (GRI BIO, INC., priority 2011, dated 2018)
